Data as given in patent US8541363B2, “Pyruvamide compounds as inhibitors of dust mite group 1 peptidase allergen and their use” (St George's Hosptial Medical School, priority 2010, dated 2013).

Molecular target: Der p 1 (Dermatophagoides pteronyssinus (European house dust mite), UniProt P08176)
Assay: Der p 1 enzyme activity assay (FRET fluorogenic substrate)
Type: biochemical
Settings: threshold stated in text; read-out: Der p 1 IC50

Chain of Der p 1 (P08176 99-320): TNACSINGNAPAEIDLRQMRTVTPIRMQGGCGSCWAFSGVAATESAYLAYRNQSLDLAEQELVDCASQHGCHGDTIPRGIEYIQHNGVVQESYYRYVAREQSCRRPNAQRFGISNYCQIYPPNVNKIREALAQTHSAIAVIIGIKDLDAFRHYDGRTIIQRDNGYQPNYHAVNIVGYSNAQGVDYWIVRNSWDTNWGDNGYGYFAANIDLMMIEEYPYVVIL

Compound	IC50
CC(C)[C@H](NC(=O)[C@H](C)NC(=O)[C@H](Cc1ccccc1C(F)(F)F)NC(=O)c1ccncc1)C(=O)C(=O)NCc1ccccc1 [PVA-152]	< 200 nM
CC(C)[C@H](NC(=O)[C@H](C)NC(=O)[C@@H](NC(=O)C1CC[N+](C)(C)CC1)C(C)(C)C)C(=O)C(=O)NC1CCCCC1 [PVA-153]	< 20 nM
CC(C)[C@H](NC(=O)[C@H](C)NC(=O)[C@@H](NC(=O)c1ccccc1)C(C)(C)C)C(=O)C(=O)NCc1cccc(C(N)=O)c1 [PVA-155]	< 20 nM
CC(C)[C@H](NC(=O)[C@H](C)NC(=O)[C@@H](NC(=O)c1ccnc2ccccc12)C(C)(C)C)C(=O)C(N)=O [PVA-156]	< 20 nM
CC(C)[C@H](NC(=O)[C@H](C)NC(=O)[C@@H](NC(=O)c1cccc2nc[nH]c12)C(C)(C)C)C(=O)C(=O)NCc1ccccc1 [PVA-157]	< 20 nM
CC(C)[C@H](NC(=O)[C@H](C)NC(=O)[C@@H](NC(=O)c1ccccc1)C(C)(C)C)C(=O)C(=O)NCc1cn[nH]c1 [PVA-158]	< 20 nM
COc1ccc(CNC(=O)C(=O)[C@@H](NC(=O)[C@H](C)NC(=O)[C@H](Cc2ccccc2)NC(=O)c2ccncc2)C(C)C)cc1 [PVA-159]	< 200 nM
COc1cccc(CNC(=O)C(=O)[C@@H](NC(=O)[C@H](C)NC(=O)[C@H](Cc2ccccc2)NC(=O)c2ccncc2)C(C)C)c1 [PVA-160]	< 200 nM
CC(C)[C@H](NC(=O)[C@H](C)NC(=O)[C@H](Cc1ccccc1)NC(=O)c1ccncc1)C(=O)C(=O)NCc1ccc(S(N)(=O)=O)cc1 [PVA-161]	< 20 nM
CC(C)[C@H](NC(=O)[C@H](C)NC(=O)[C@@H](NC(=O)c1ccccc1)C(C)(C)C)C(=O)C(=O)NCc1ccc(N2CCN(C)CC2)cc1 [PVA-162]	< 20 nM
CC(C)[C@H](NC(=O)[C@H](C)NC(=O)[C@@H](NC(=O)c1ccccc1)C(C)(C)C)C(=O)C(=O)NCC1CCN(C)CC1 [PVA-163]	< 200 nM
CC(C)[C@H](NC(=O)[C@H](C)NC(=O)[C@@H](NC(=O)c1ccccc1)C(C)(C)C)C(=O)C(=O)NCc1ccc(CN(C)C)cc1 [PVA-164]	< 20 nM
CC(C)[C@H](NC(=O)[C@H](C)NC(=O)[C@@H](NC(=O)c1ccccc1)C(C)(C)C)C(=O)C(=O)NCc1ccc(CN2CCCCC2)cc1 [PVA-165]	< 200 nM
CC(C)[C@H](NC(=O)[C@H](C)NC(=O)[C@@H](NC(=O)c1ccccc1)C(C)(C)C)C(=O)C(=O)NCc1nccn1C [PVA-166]	< 200 nM
CC(C)[C@H](NC(=O)[C@H](C)NC(=O)[C@@H](NC(=O)c1ccccc1)C(C)(C)C)C(=O)C(=O)NCc1ccnn1C [PVA-167]	< 200 nM
Cc1cc(CNC(=O)C(=O)[C@@H](NC(=O)[C@H](C)NC(=O)[C@@H](NC(=O)c2ccccc2)C(C)(C)C)C(C)C)n(C)n1 [PVA-168]	< 200 nM
CC(C)[C@H](NC(=O)[C@H](C)NC(=O)[C@H](Cc1ccccc1)NC(=O)c1ccncc1)C(=O)C(=O)NCc1cccc(C(N)=O)c1 [PVA-169]	< 20 nM
CC(C)[C@H](NC(=O)[C@H](C)NC(=O)[C@H](Cc1ccccc1)NC(=O)c1ccncc1)C(=O)C(=O)NCC1CCN(C)CC1 [PVA-170]	< 200 nM
CC(C)[C@H](NC(=O)[C@H](C)NC(=O)[C@H](Cc1ccccc1)NC(=O)c1ccncc1)C(=O)C(=O)NCc1cccc(S(N)(=O)=O)c1 [PVA-171]	< 200 nM
CC(C)[C@H](NC(=O)[C@H](C)NC(=O)[C@@H](NC(=O)C1CCN(C(C)C)CC1)C(C)(C)C)C(=O)C(=O)NCc1ccccc1 [PVA-172]	< 200 nM
CC(C)[C@H](NC(=O)[C@H](C)NC(=O)[C@@H](NC(=O)c1cccc(N2CCN(C)CC2)c1)C(C)(C)C)C(=O)C(=O)NCc1ccccc1 [PVA-173]	< 200 nM

Compound	IC50
CC(C)[C@H](NC(=O)[C@H](C)NC(=O)[C@H](Cc1ccccc1)NC(=O)c1ccncc1)C(=O)C(=O)NC1CCC1 [PVA-174]	< 200 nM
CC(C)[C@H](NC(=O)[C@H](C)NC(=O)[C@H](Cc1ccccc1)NC(=O)c1ccncc1)C(=O)C(=O)NC1CCCC1 [PVA-175]	< 200 nM
CC(C)[C@H](NC(=O)[C@H](C)NC(=O)[C@@H](NC(=O)c1ccc(N2CCN(C)CC2)cc1)C(C)(C)C)C(=O)C(=O)NCc1ccccc1 [PVA-176]	< 200 nM
CC(C)[C@H](NC(=O)[C@H](C)NC(=O)[C@@H](N1Cc2ccccc2C1=O)C(C)(C)C)C(=O)C(=O)NC1CC1 [PVA-177]	< 20 nM
CC(C)[C@H](NC(=O)[C@H](C)NC(=O)[C@@H](NC(=O)c1ccccc1)C(C)(C)C)C(=O)C(=O)NCc1ccc(F)cc1 [PVA-178]	< 20 nM
CC(C)[C@H](NC(=O)[C@H](C)NC(=O)[C@@H](NC(=O)c1ccccc1)C(C)(C)C)C(=O)C(=O)NCc1ccc(Cl)cc1 [PVA-179]	< 200 nM
CC(C)[C@H](NC(=O)[C@H](C)NC(=O)[C@@H](NC(=O)c1ccccc1)C(C)(C)C)C(=O)C(=O)NCc1ccc(C(C)(C)C)cc1 [PVA-180]	< 200 nM
CC(C)[C@H](NC(=O)[C@H](C)NC(=O)[C@@H](NC(=O)c1ccccc1)C(C)(C)C)C(=O)C(=O)NCc1ccc(C(F)(F)F)cc1 [PVA-181]	< 200 nM
CC(C)[C@H](NC(=O)[C@H](C)NC(=O)[C@@H](NC(=O)c1ccccc1C(F)(F)F)C(C)(C)C)C(=O)C(=O)NCc1ccccc1 [PVA-182]	< 20 nM
CC(C)[C@H](NC(=O)[C@H](C)NC(=O)[C@@H](NC(=O)c1cccc(Cl)c1)C(C)(C)C)C(=O)C(=O)NCc1ccccc1 [PVA-183]	< 20 nM
CC(C)[C@H](NC(=O)[C@H](C)NC(=O)[C@@H](NC(=O)c1ccc(Cl)cc1)C(C)(C)C)C(=O)C(=O)NCc1ccccc1 [PVA-184]	< 200 nM
CC(C)[C@H](NC(=O)[C@H](C)NC(=O)[C@@H](NC(=O)c1ccnc2ccccc12)C(C)(C)C)C(=O)C(=O)NCc1ccc(S(N)(=O)=O)cc1 [PVA-185]	< 20 nM
CC(C)[C@H](NC(=O)[C@H](C)NC(=O)[C@@H](NC(=O)c1ccnc2ccccc12)C(C)(C)C)C(=O)C(=O)NCC(=O)N1CCc2ccccc2C1 [PVA-186]	< 20 nM
CC(C)[C@H](NC(=O)[C@H](C)NC(=O)[C@@H](NC(=O)c1ccnc2ccccc12)C(C)(C)C)C(=O)C(=O)NCC(=O)N1CCN(C(C)C)CC1 [PVA-187]	< 20 nM
CC(C)[C@H](NC(=O)[C@H](C)NC(=O)[C@@H](NC(=O)c1ccnc2ccccc12)C(C)(C)C)C(=O)C(=O)NCc1ccc(C(N)=O)cc1 [PVA-188]	< 20 nM
CC(C)[C@H](NC(=O)[C@H](C)NC(=O)[C@@H](NC(=O)c1ccccc1)C(C)(C)C)C(=O)C(=O)NCc1ccc(OC(F)(F)F)cc1 [PVA-189]	< 200 nM
CC(C)[C@H](NC(=O)[C@H](C)NC(=O)[C@@H](NC(=O)c1ccccc1)C(C)(C)C)C(=O)C(=O)NCc1cccc(N2CCN(C)CC2)c1 [PVA-190]	< 200 nM
CC(C)[C@H](NC(=O)[C@H](C)NC(=O)[C@@H](NC(=O)c1ccccc1)C(C)(C)C)C(=O)C(=O)NCc1cccc(Cl)c1 [PVA-191]	< 200 nM
CC(C)[C@H](NC(=O)[C@H](C)NC(=O)[C@@H](NC(=O)c1ccccc1)C(C)(C)C)C(=O)C(=O)NCc1ccc(C#N)cc1 [PVA-192]	< 20 nM
CC(C)[C@H](NC(=O)[C@H](C)NC(=O)[C@@H](NC(=O)c1ccccc1)C(C)(C)C)C(=O)C(=O)NCc1ccccc1Cl [PVA-193]	< 200 nM
CC(C)[C@H](NC(=O)[C@H](C)NC(=O)[C@@H](NC(=O)c1ccccc1)C(C)(C)C)C(=O)C(=O)NCc1ccc(NC(N)=O)cc1 [PVA-194]	< 20 nM
